Data as given in PMC6509406 (Chembiochem : a European journal of chemical biology, 2018).
“Also recorded” adds a separate entry of the source.

Assays:
[1] = molecular target: DgcA (CC3285) diguanylate cyclase (Caulobacter crescentus, UniProt Q9A3B9); assay: FRET-based DGC activity assay, dose-response; type: biochemical; settings: for Hill coeff: from fitting the concentration-response curves; for remaining DGC activity of the enzyme-inhibitor-substrate complex: compound saturating concentration; for mode of modulation of DgcA activity / binding affinity towards DgcA: in words
[2] = molecular target: mCYPet-YcgR-mYPet c-di-GMP biosensor (PilZ protein YcgR); settings: cited from earlier work; for biosensor FRET response: specificity for c-di-GMP
[3] = IC50 (binding affinity) against DgcA, running text and figure legends
[4] = IC50 ± SD, Table 2, negative and silent allosteric modulators

Structure (SMILES) | remaining DGC activity of the enzyme-inhibitor-substrate complex [1] [%] | mode of modulation of DgcA activity [1] | IC50 [1, 4] [µM] | % Activity ESI (DGC activity of the enzyme-substrate-inhibitor complex) ([1]; Table 2, compound saturation) [%] | Hill coeff ([1]; Table 2) | binding affinity towards DgcA [1] | also measured
O=C(OCC(=O)N1CCCC1=O)c1ccc2ncsc2c1 [Compound 1, [2-oxo-2-(2-oxopyrrolidin-1-yl)ethyl] 1,3-benzothiazole-6-carboxylate] | 1.4 | complete inhibition; also recorded: complete inhibitor; also recorded: complete negative allosteric modulator | – | – | – | – | IC50 [1, 3]: < 10 µM; IC50 ([1]; IC50 ± SD, Table 1, 20 nM DgcA, 20 μM GTP, 25 °C, 1% DMSO): 4 ± 0.2 µM; Hill coeff ([1]; Table 1): 2.34 ± 0.19; % Activity ESI (DGC activity of the enzyme-substrate-inhibitor complex) ([1]; Table 1, inhibitor saturation): 1.40 ± 0.1%
O=C(OCC(=O)N1CCCC1=O)c1ccc2ncoc2c1 [Compound 1g, 2-oxo-2-(2-oxopyrrolidin-1-yl)ethyl benzo[d]oxazole-6-carboxylate] | 87.7 | silent allosteric modulators; also recorded: silent allosteric regulator | 3.1 ± 0.7 | 87.7 ± 4.2 | 2.35 ± 0.82 | – | –
O=C(OCC(=O)N1CCCC1=O)c1ccccc1 [Compound 1h, 2-oxo-2-(2-oxopyrrolidin-1-yl)ethyl benzoate] | 118 | positive modulators; also recorded: positive allosteric regulator | – | 117.9 ± 1.4 | 2.02 ± 0.19 | – | AC50 [1]: 238 ± 72 µM
Cc1nc2ccc(C(=O)OCC(=O)N3CCCC3=O)cc2s1 [Compound 1i, 2-oxo-2-(2-oxopyrrolidin-1-yl)ethyl 2-methylbenzo[d]thiazole-6-carboxylate] | – | – | 52.9 ± 10.7 | 68.1 ± 8.8 | 2.72 ± 1.28 | – | –
O=C(OCC(=O)N1CCCC1=O)c1ccc2occc2c1 [Compound 1j, 2-Oxo-2-(2-oxopyrrolidin-1-yl)ethyl benzofuran-5-carboxylate] | 92.2 | silent allosteric modulators | 4.4 ± 2.2 | 92.2 ± 0.6 | 2.05 ± 0.12 | – | –
O=C(OCC(=O)N1CCCC1=O)c1ccc2[nH]ccc2c1 [Compound 1k, 2-oxo-2-(2-oxopyrrolidin-1-yl)ethyl 1H-indole-5-carboxylate] | – | negative modulators | 324 ± 39 | 6.3 ± 0.4 | 2.37 ± 0.30 | strongly reduced binding affinities | –
Cn1ccc2cc(C(=O)OCC(=O)N3CCCC3=O)ccc21 [Compound 1l, 2-oxo-2-(2-oxopyrrolidin-1-yl)ethyl 1-methyl-1H-indole-5-carboxylate] | – | negative modulators | 300 ± 37.7 | – | – | strongly reduced binding affinities | –
Cn1cnc2cc(C(=O)OCC(=O)N3CCCC3=O)ccc21 [Compound 1m, 2-oxo-2-(2-oxopyrrolidin-1-yl)ethyl 1-methyl-1H-benzo[d]imidazole-5-carboxylate] | – | negative modulators | 82.2 ± 14.6 | – | 1.52 ± 0.28 | strongly reduced binding affinities | –
O=C(OCC(=O)N1CCCC1=O)c1ccc2cnccc2c1 [Compound 1n, 2-oxo-2-(2-oxopyrrolidin-1-yl)ethyl isoquinoline-6-carboxylate] | – | negative modulators | 179 ± 10.5 | 0.0 ± 2.0 | 2.06 ± 0.15 | strongly reduced binding affinities | –
O=C(OCC(=O)N1CCCC1=O)c1ccc2nccnc2c1 [Compound 1o, 2-oxo-2-(2-oxopyrrolidin-1-yl)ethyl quinoxaline-6-carboxylate] | – | negative modulators | 344 ± 19.9 | 0.0 ± 0.7 | 2.22 ± 0.16 | strongly reduced binding affinities | –
O=C(OCC(=O)N1CCCC1=O)c1ccc2scnc2c1 [Compound 1p, 2-oxo-2-(2-oxopyrrolidin-1-yl)ethyl benzothiazole-5-carboxylate] | – | – | 627 ± 49 | – | – | – | IC50 [1, 3]: 626 µM
CN(C)c1ccc(C(=O)OCC(=O)N2CCCC2=O)cc1 [Compound 1q, 2-oxo-2-(2-oxopyrrolidin-1-yl)ethyl 4-(dimethylamino)benzoate] | 176 | positive modulators | – | 176.1 ± 3.3 | 2.51 ± 0.68 | – | AC50 [1]: 222 ± 85.6 µM
O=C(OCC(=O)N1CCCC1=O)c1ccc([N+](=O)[O-])cc1 [Compound 1r, 2-oxo-2-(2-oxopyrrolidin-1-yl)ethyl 4-nitrobenzoate] | 156 | positive modulators | – | 156.4 ± 1.7 | 2.01 ± 0.18 | – | AC50 [1]: 55.5 ± 13.6 µM
O=C(NCC(=O)N1CCCC1=O)c1ccc2ncsc2c1 [Compound 1s, N-(2-oxo-2-(2-oxopyrrolidin-1-yl)ethyl)-benzo[d]thiazole-6-carboxamide] | 48 | partial inhibitor | – | – | – | – | IC50 [1, 3]: 31.6 µM
CC(OC(=O)c1ccc2ncsc2c1)C(=O)N1CCCC1=O (stereo not drawn) [Compound 1t, 1-oxo-1-(2-oxopyrrolidin-1-yl)propan-2-yl benzo[d]thiazole-6-carboxylate] | – | – | – | – | – | completely abolished binding affinity | –
O=C(OCCC(=O)N1CCCC1=O)c1ccc2ncsc2c1 [Compound 1u, 3-oxo-3-(2-oxopyrrolidin-1-yl)propyl benzo[d]thiazole-6-carboxylate] | – | – | – | – | – | completely abolished binding affinity | –
Cc1ccc(C)c(OCCCC(=O)Nc2ccc(N3CCOCC3)cc2)c1 [Compound 2, 4-(2,5-dimethylphenoxy)-N-(4-morpholin-4-ylphenyl)butanamide] | 31.4 | partial inhibitor | – | – | – | – | IC50 [1, 3]: < 10 µM; IC50 ([1]; IC50 ± SD, Table 3, negative and silent allosteric modulators): 6.4 ± 0.5 µM; % Activity ESI (DGC activity of the enzyme-substrate-inhibitor complex) ([1]; Table 3, compound saturation): 31.4 ± 1.3%; Hill coeff ([1]; Table 3): 1.36 ± 0.13
Nc1nc2c(ncn2[C@@H]2O[C@@H]3COP(=O)(O)O[C@H]4[C@@H](O)[C@H](n5cnc6c(=O)[nH]c(N)nc65)O[C@@H]4COP(=O)(O)O[C@H]3[C@H]2O)c(=O)[nH]1 [c-di-GMP, cyclic diguanosine monophosphate] | – | – | – | – | – | – | Kd ([2]; read-out: binding constant (KD) of the biosensor for c-di-GMP, 25°C): 0.198 µM
Nc1nc2c(ncn2[C@@H]2O[C@@H]3COP(=O)(O)O[C@H]3[C@H]2O)c(=O)[nH]1 [cyclic GMP] | – | – | – | – | – | – | biosensor FRET response [2]: no detectable response
Nc1nc2c(ncn2[C@@H]2O[C@H](COP(=O)(O)OP(=O)(O)OP(=O)(O)O)[C@@H](O)[C@H]2O)c(=O)[nH]1 [guanosine 5-triphosphate] | – | – | – | – | – | – | biosensor FRET response [2]: no detectable response
